{
  "source": "paper PMC3984115",
  "about": "(PLoS ONE, 2014)",
  "key": {"[1]": {"system": "nAChRs in monkey adrenal chromaffin cells", "test": "Agonist-evoked currents, perforated-patch patch-clamp, monkey adrenal chromaffin cells", "type": "cell-based, monkey (Macaca mulatta)", "conditions": "for current amplitude (choline comparison cells): 10 mM choline versus 300 μM ACh in the same cells"}, "M. mulatta α7 nAChRs": {"system": "M. mulatta α7 nAChRs", "conditions": "heterologously expressed M. mulatta α7; ref [37]; cited from earlier work"}, "[2]": {"system": "release of dopamine from dopaminergic terminals of rat striatal neurons", "conditions": "cited from earlier work"}, "[3]": {"system": "release of dopamine from dopaminergic terminals of mouse striatal neurons", "conditions": "cited from earlier work"}, "human α6/α3β4 nAChR": {"biological_target": "T1, human α6/α3β4 nAChR (Homo sapiens, UniProt P30926+P32297+Q15825)", "T1 construct": "expressed in transfected cells; host or cells: Xenopus laevis oocytes (cRNA injection, 1:1 ratio)", "T1 sequence (P30926 whole entry, looked up)": "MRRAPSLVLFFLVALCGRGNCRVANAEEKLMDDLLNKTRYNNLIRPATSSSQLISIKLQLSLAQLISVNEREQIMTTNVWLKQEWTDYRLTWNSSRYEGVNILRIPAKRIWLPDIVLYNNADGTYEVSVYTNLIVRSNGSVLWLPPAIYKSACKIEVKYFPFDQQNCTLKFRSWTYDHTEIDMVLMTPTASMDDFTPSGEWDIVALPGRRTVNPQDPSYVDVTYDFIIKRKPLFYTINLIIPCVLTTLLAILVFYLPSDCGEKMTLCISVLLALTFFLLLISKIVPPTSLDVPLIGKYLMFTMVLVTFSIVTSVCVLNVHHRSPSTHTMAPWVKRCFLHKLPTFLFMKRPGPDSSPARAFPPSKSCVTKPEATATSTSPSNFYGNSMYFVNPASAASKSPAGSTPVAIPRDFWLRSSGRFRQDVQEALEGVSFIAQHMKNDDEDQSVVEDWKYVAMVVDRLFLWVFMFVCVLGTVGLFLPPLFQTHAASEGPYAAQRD", "T1 sequence (P32297 whole entry, looked up)": "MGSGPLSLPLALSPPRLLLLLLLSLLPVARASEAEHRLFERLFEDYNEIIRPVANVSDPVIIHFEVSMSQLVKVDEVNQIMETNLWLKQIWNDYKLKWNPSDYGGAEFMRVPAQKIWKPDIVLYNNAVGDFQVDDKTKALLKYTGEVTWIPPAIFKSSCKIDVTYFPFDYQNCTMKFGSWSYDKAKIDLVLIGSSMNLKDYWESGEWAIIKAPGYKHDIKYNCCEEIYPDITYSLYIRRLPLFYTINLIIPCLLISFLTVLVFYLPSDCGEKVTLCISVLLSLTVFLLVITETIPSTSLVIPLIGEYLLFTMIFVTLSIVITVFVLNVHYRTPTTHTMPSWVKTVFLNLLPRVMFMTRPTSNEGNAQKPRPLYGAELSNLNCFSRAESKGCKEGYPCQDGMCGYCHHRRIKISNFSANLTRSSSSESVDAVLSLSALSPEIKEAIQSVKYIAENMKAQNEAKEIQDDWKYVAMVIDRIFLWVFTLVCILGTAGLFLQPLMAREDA", "T1 sequence (Q15825 whole entry, looked up)": "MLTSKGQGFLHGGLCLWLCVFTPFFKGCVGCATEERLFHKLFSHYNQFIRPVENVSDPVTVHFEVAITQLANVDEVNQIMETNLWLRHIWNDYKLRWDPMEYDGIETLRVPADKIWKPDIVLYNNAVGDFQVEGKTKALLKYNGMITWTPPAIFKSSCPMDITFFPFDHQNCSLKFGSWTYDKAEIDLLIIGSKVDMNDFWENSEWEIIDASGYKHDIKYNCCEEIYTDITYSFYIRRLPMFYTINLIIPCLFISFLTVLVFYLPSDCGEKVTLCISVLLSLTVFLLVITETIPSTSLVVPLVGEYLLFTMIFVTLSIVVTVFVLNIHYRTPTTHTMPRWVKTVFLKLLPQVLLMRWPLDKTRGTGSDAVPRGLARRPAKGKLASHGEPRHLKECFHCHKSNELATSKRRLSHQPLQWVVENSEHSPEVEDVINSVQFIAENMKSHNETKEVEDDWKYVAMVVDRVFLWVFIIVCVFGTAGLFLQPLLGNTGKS", "type": "cell-based"}, "[4]": {"system": "heteromeric receptor subtypes that contain the β2 subunit", "set-up": "method as in PMID 10692507", "conditions": "β2-containing heteromeric receptors; ref [38]; cited from earlier work"}},
  "note": "Where “and” joins values, the source holds several entries; their conditions need not be identical. Identical values can stand only once. Like-named read-outs stand apart in the source and are kept apart here. Where no end group is shown, it is not given here.",
  "data": [
    {"molecule": "C[N+](C)(C)CCO", "note": "[choline]", "values": [
      {"measurement": "current amplitude (choline comparison cells)", "setting": "[1]; n = 4, ± S.E.M.", "result": "21±4", "unit": "pA"},
      {"measurement": "current amplitude as % of response evoked by 300 μM ACh in the same cells", "setting": "[1]; 10 mM choline, n = 4, ± S.E.M., holding potential −80 mV", "result": "1.7±0.1", "unit": "%"},
      {"measurement": "response to agonist, in words", "setting": "[1]; cells with currents evoked by acetylcholine", "result": "relatively unresponsive"},
      {"measurement": "agonist activity in words", "setting": "M. mulatta α7 nAChRs", "result": "full agonist"}
    ]},
    {"molecule": "CC(=O)OCC[N+](C)(C)C", "note": "[ACh, acetylcholine]", "values": [
      {"measurement": "current amplitude (5-I-A-85380 comparison cells)", "setting": "[1]; 100 μM 5-I-A-85380 versus 300 μM ACh in the same cells, n = 4, ± S.E.M.", "result": "657± 97", "unit": "pA"},
      {"measurement": "current density", "setting": "[1]; 100 μM 5-I-A-85380 versus 300 μM ACh in the same cells, n = 4, ± S.E.M., difference not statistically significant, p = 0.0625", "result": "149±22", "unit": "pA/pF"},
      {"measurement": "peak current amplitude", "setting": "[1]; 300 μM ACh, mean ± S.D.M, n = 18, holding potential −80 mV, 200 ms pulses", "result": "865 ± 387", "unit": "pA"},
      {"measurement": "current amplitude (choline comparison cells)", "setting": "[1]; n = 4, ± S.E.M.", "result": "1245±238", "unit": "pA"}
    ]},
    {"molecule": "α-Ctx MII (GCCSNPVCHLEHSNLC; ends and bridges not checked; cysteine pairing not given here; UniProt P56636 49-64, looked up)", "values": [
      {"measurement": "sensitivity of dopamine release to toxin, in words", "setting": "[2]", "result": "sensitive"},
      {"measurement": "sensitivity of dopamine release to toxin, in words", "setting": "[3]", "result": "sensitive"}
    ]},
    {"molecule": "Ic1cncc(OC[C@@H]2CCN2)c1", "note": "[5-I-A-85380]", "values": [
      {"measurement": "efficacy versus 300 μM ACh, in words", "setting": "[1]", "result": "more efficacious than 300 μM ACh"},
      {"measurement": "response to agonist, in words", "setting": "[1]", "result": "responded"},
      {"measurement": "current amplitude (5-I-A-85380 comparison cells)", "setting": "[1]; n = 4", "result": "1088±120", "unit": "pA"},
      {"measurement": "current amplitude relative to ACh (printed \"% larger than the currents evoked by ACh\")", "setting": "[1]; n = 4", "result": "170±16", "unit": "%"},
      {"measurement": "current density", "setting": "[1]; n = 4", "result": "256±28", "unit": "pA/pF"},
      {"measurement": "current amplitude as % of that produced by 300 μM ACh in the same cells", "setting": "human α6/α3β4 nAChR", "result": "100±12.1% and 100±12%"},
      {"measurement": "efficacy versus 300 μM ACh, in words", "setting": "human α6/α3β4 nAChR", "result": "as efficacious as 300 μM ACh"},
      {"measurement": "affinity in words", "setting": "[4]", "result": "high affinity"}
    ]}
  ]
}
